Consider 19 compounds from patent US8420676B2, “Oxazolidinone derivatives” (Dong-A Pharmaceuticals Co. Ltd., priority 2003, dated 2013).

≈ marks a conversion by molar mass, not a printed value.

The nature of series [1]: Assay for solubility in distilled water (turbidity by naked eye). The series is classed as physicochemical. To be noted: average of three runs; for solubility at 2 min: thermodynamic from solid. The protocol:
The derivatives of the present invention were added to 200 μl of distilled water and then the solution was stirred for 2 minutes. The turbidity of the solution was watched through naked eye.
When the derivatives were not dissolved completely, 50 μl of distilled water was added to the solution and then the turbidity of the solution was assayed in the above manner to find a point of becoming transparent solution.
When 2 mg of the derivatives was first added to distilled water and completely dissolved so that the solution became transparent, 2 mg of the derivatives was added more to the solution and then state of the solution was watched. The derivatives of the present invention were added to the five times and then solubility of the solution was assayed for. The assay for solubility was carried out the three times repeatedly in the above method and the results were averaged.

The subject of the next series is ICR mice. The experiment in a line: Test of acute toxicity by oral administration to mouse. The series is classed as in vivo. Conditions: 1% hydroxypropylmethylcellulose, observed 2 weeks. As for the experimental part: To test acute toxicity of the compounds of the present invention, the following experiment was carried out.
A mixture of 1% hydroxypropylmethylcellulose and 200 mg of one selected from the group consisting of the compounds 10, 12, 16, 17, 20, 22, 24 and 27 was administrated to 5 ICR mice (5-Week old males, 20 g±2 g by weight). And then lethality for 2 weeks, weight, symptoms etc. was watched to determine Minimum Lethal Dose (MLD, mg/kg). […]

The test system of series [2] is vancomycin resistant Enterococci (VRE). The experiment in a line: Assay for in vitro antibacterial activity, agar dilution (VRE). To be noted: Enterococcus, read-out: Minimum Inhibitory Concentration (MIC50) VRE.
In series [3] the test system is methicillin resistant Staphylococcus aureus (MRSA). The experiment in a line: Assay for in vitro antibacterial activity, agar dilution (MRSA). To be noted: read-out: Minimum Inhibitory Concentration (MIC50) MRSA.

As to `Cn1nnc(-c2ccc(-c3ccc(N4C[C@H](CO)OC4=O)cc3F)cn2)n1` [Compound 10, (R)-3-(4-(2-(2-methyltetrazol-5-yl)pyridin-5-yl)-3-fluorophenyl)-5-hydroxymethyl oxazolidin-2-one], in series [1], the solubility at 2 min was 10 µg/mL (≈ 27 µM). Besides, the “Minimum Lethal Dose (MLD)” value in the series on ICR mice is reported as greater than 1000 mg/kg. The MIC50 in series [2] stood at 0.25 µg/mL (≈ 0.675 µM); in series [3], 0.5 µg/mL (≈ 1.35 µM).
Turning to `Cc1nnc(-c2ccc(-c3ccc(N4C[C@H](COC(=O)CN)OC4=O)cc3F)cn2)o1.Cl` [Compound 48, (R)-3-(4-(2-(2-methyl-[1,3,4]oxadiazol-5-yl)pyridin-5-yl)-3-fluorophenyl)-5-glycyloxymethyl oxazolidin-2-one hydrochloride], in series [1], the solubility at 2 min is greater than 50000 µg/mL. The MIC50 was 1 µg/mL in series [2] and 0.5 µg/mL in series [3].
In the case of `Cc1nnc(-c2ccc(-c3ccc(N4C[C@H](COC(=O)CN)OC4=O)cc3F)cn2)o1` [Compound 27, (R)-3-(4-(2-(2-methyl-[1,3,4]oxadiazole-5-yl)pyridin-5-yl)-3-fluorophenyl)-5-glycyloxymethyl oxazolidin-2-one trifluoroacetic acid], the solubility at 2 min in series [1] is greater than 50000 µg/mL. Moreover, the “Minimum Lethal Dose (MLD)” value in the series on ICR mice is greater than 1000 mg/kg.
`Cl.Cn1nnc(-c2ccc(-c3ccc(N4C[C@H](COC(=O)[C@@H]5CCCN5)OC4=O)cc3F)cn2)n1` [Compound 47, (R)-3-(4-(2-(2-methyltetrazol-5-yl)pyridin-5-yl)-3-fluorophenyl)-5-(L-prolinyloxy)methyl oxazolidin-2-one hydrochloride] had a solubility at 2 min in series [1] of 2000 µg/mL. Besides, the MIC50 in series [2] came to 0.25 µg/mL; in series [3], 0.5 µg/mL.
For the compound `Cn1nnc(-c2ccc(-c3ccc(N4C[C@H](COC(=O)CCN)OC4=O)cc3F)cn2)n1` [Compound 49, (R)-3-(4-(2-(2-methyltetrazol-5-yl)pyridin-5-yl)-3-fluorophenyl)-5-(β-alanyloxy)methyl oxazolidin-2-one trifluoroacetic acid], the Solubility in series [1] (trifluoroacetic acid) was determined as 2.6 mg/mL (≈ 5890 µM). For the same compound, the MIC50 in series [2] was found to be 0.25 µg/mL (≈ 0.566 µM); in series [3] it was 0.5 µg/mL (≈ 1.13 µM).
For the compound `Cc1nnc(-c2ccc(-c3ccc(N4C[C@H](COC(=O)[C@H](C)N)OC4=O)cc3F)cn2)o1.Cl` [Compound 52, (R)-3-(4-(2-(2-methyl-[1,3,4]oxadiazol-5-yl)pyridin-5-yl)-3-fluorophenyl)-5-(L-alanyloxy)methyl oxazolidin-2-one hydrochloride], the solubility at 2 min in series [1] was greater than 50000 µg/mL. Further, the figures for the MIC50 in series [2] and in series [3] were 1 µg/mL and 0.5 µg/mL, respectively.
As for `NCC(=O)OC[C@H]1CN(c2ccc(-c3ccc(-n4ccnn4)nc3)c(F)c2)C(=O)O1` [Compound 22, (R)-3-(4-(2-([1,2,3]triazol-1-yl)pyridin-5-yl)-3-fluorophenyl)-5-glycyloxymethyl oxazolidin-2-one trifluoroacetic acid], in the series with ICR mice, the “Minimum Lethal Dose (MLD)” value is listed as greater than 1000 mg/kg. Moreover, the MIC50 in series [2] and in series [3] was 1 µg/mL (≈ 2.42 µM) each time.
With `Cc1nnc(-c2ccc(-c3ccc(N4C[C@H](CO)OC4=O)cc3F)cn2)o1` [Compound 16, (R)-3-(4-(2-(2-methyl-[1,3,4]oxadiazol-5-yl)pyridin-5-yl)-3-fluorophenyl)-5-hydroxymethyl oxazolidin-2-one], the concentration in solution in series [1] (solubility at 2 min) came to 20 µg/mL (≈ 54 µM). Moreover, the “Minimum Lethal Dose (MLD)” value in the series with ICR mice is given as greater than 1000 mg/kg. Besides, the MIC50 in series [2] amounted to 1 µg/mL (≈ 2.7 µM); in series [3] it was 0.5 µg/mL (≈ 1.35 µM).
Turning to `CC(C)[C@H](N)C(=O)OC[C@H]1CN(c2ccc(-c3ccc(-c4nnn(C)n4)nc3)c(F)c2)C(=O)O1` [Compound 20, (R)-3-(4-(2-(2-methyltetrazol-5-yl)pyridin-5-yl)-3-fluorophenyl)-5-(L-valyloxy)methyl oxazolidin-2-one trifluoroacetic acid], the Solubility in series [1] stood at 4.7 mg/mL (≈ 10000 µM). The “Minimum Lethal Dose (MLD)” value with ICR mice was greater than 1000 mg/kg.
The compound `Cc1nnc(-c2ccc(-c3ccc(N4C[C@H](COC(=O)CCN)OC4=O)cc3F)cn2)o1.Cl` [Compound 58, (R)-3-(4-(2-(2-methyl-[1,3,4]oxadiazol-5-yl)pyridin-5-yl)-3-fluorophenyl)-5-(β-alanyloxy)methyl oxazolidin-2-one hydrochloride] yielded a solubility at 2 min in series [1] of 5500 µg/mL. The MIC50 is 1 µg/mL in series [2] and 0.5 µg/mL in series [3].
As to `O=C1O[C@@H](CO)CN1c1ccc(-c2ccc(-n3ccnn3)nc2)c(F)c1` [Compound 24, (R)-3-(4-(2-([1,2,3]triazol-1-yl)pyridin-5-yl)-3-fluorophenyl)-5-hydroxymethyl oxazolidin-2-one], the “Minimum Lethal Dose (MLD)” value in the series with ICR mice is greater than 1000 mg/kg. Moreover, the MIC50 in series [2] and in series [3] was 0.5 µg/mL (≈ 1.41 µM) throughout.
The compound `Cn1nnc(-c2ccc(-c3ccc(N4C[C@H](COP(=O)([O][Na+])[O][Na+])OC4=O)cc3F)cn2)n1` [Compound 59, (R)-[3-(4-(2-(2-methyltetrazol-5-yl)pyridin-5-yl)-3-fluorophenyl)-2-oxo-5-oxazolidinyl]methyl disodiumphosphate] displayed a solubility at 2 min in series [1] greater than 50000 µg/mL. For the same compound, the MIC50 is 0.25 µg/mL in series [2] and 0.5 µg/mL in series [3].
In series [1], `C[C@H](N)C(=O)OC[C@H]1CN(c2ccc(-c3ccc(-c4nnn(C)n4)nc3)c(F)c2)C(=O)O1.Cl` [Compound 44, (R)-3-(4-(2-(2-methyltetrazol-5-yl)pyridin-5-yl)-3-fluorophenyl)-5-(L-alanyloxy)methyl oxazolidin-2-one hydrochloride] displayed a solubility at 2 min greater than 50000 µg/mL. The results for the MIC50 in series [2] and in series [3] were 0.25 µg/mL and 0.5 µg/mL, respectively.
As for `Cn1nnc(-c2ccc(-c3ccc(N4C[C@H](COC(=O)CN)OC4=O)cc3F)cn2)n1` [Compound 12, (R)-3-(4-(2-(2-methyltetrazol-5-yl)pyridin-5-yl)-3-fluorophenyl)-5-glycyloxymethyl oxazolidin-2-one trifluoroacetic acid], the Solubility in series [1] worked out at 28 mg/mL (≈ 65500 µM). The “Minimum Lethal Dose (MLD)” value in the series with ICR mice was greater than 1000 mg/kg.
On to `Cc1nnc(-c2ccc(-c3ccc(N4C[C@H](COC(=O)[C@@H]5CCCN5)OC4=O)cc3F)cn2)o1.Cl` [Compound 56, (R)-3-(4-(2-(2-methyl-[1,3,4]oxadiazol-5-yl)pyridin-5-yl)-3-fluorophenyl)-5-(L-prolinyloxy)methyl oxazolidin-2-one hydrochloride], for which the solubility at 2 min in series [1] was greater than 50000 µg/mL. Besides, the MIC50 came to 1 µg/mL in series [2] and 0.5 µg/mL in series [3].
Take `CC(C)[C@H](N)C(=O)OC[C@H]1CN(c2ccc(-c3ccc(-c4nnn(C)n4)nc3)c(F)c2)C(=O)O1.Cl` [Compound 43, (R)-3-(4-(2-(2-methyltetrazol-5-yl)pyridin-5-yl)-3-fluorophenyl)-5-(L-valyloxy)methyl oxazolidin-2-one hydrochloride]: the Solubility in series [1] turned out to be 4.2 mg/mL. The MIC50 amounted to 0.25 µg/mL in series [2] and 0.5 µg/mL in series [3].
For `Cl.Cn1nnc(-c2ccc(-c3ccc(N4C[C@H](COC(=O)CN)OC4=O)cc3F)cn2)n1` [Compound 45, (R)-3-(4-(2-(2-methyltetrazol-5-yl)pyridin-5-yl)-3-fluorophenyl)-5-glycyloxymethyl oxazolidin-2-one hydrochloride], in that order: 12 mg/mL, 0.25 µg/mL and 0.5 µg/mL.
On to `Cn1nnnc1-c1ccc(-c2ccc(N3C[C@H](COP(=O)([O-])[O-])OC3=O)cc2F)cn1.[Na+].[Na+]` [Compound 70, (R)-[3-(4-(2-(1-methyltetrazol-5-yl)pyridin-5-yl)-3-fluorophenyl)-2-oxo-5-oxazolidinyl]methyl disodiumphosphate], for which, in series [1], the solubility at 2 min was greater than 50000 µg/mL. In addition, the MIC50 turned out to be 0.25 µg/mL in series [2] and 0.5 µg/mL in series [3].
As for `O=C1O[C@@H](CO)CN1c1ccc(-c2ccc(-n3cncn3)nc2)c(F)c1` [Compound 17, (R)-3-(4-(2-[1,2,4]triazol-1-ylpyridin-5-yl)-3-fluorophenyl)-5-hydroxymethyl oxazolidin-2-one], the “Minimum Lethal Dose (MLD)” value in the series on ICR mice is greater than 1000 mg/kg. Besides, the MIC50 in series [2] and in series [3] was 1 µg/mL (≈ 2.81 µM) each time.
